Experimental data published in patent US20240122941A1, “THERAPY BASED ON SYNTHETIC LETHALITY IN SWI/SNF COMPLEX-DYSFUNCTION CANCER” (NATIONAL CANCER CENTER, priority 2020, published 2024).
Where two headings read alike, the source gives them in different places.

Assays:
[1] = system: 786-O cells (renal cancer derived, SMARCB1 wild-type); assay: Cell growth suppression experiment (CellTiter-Glo), 786-O cells; conditions: for IC50: read-out: IC50 786-O; for cell survival rate (%) at treatment with 10 μM, 786-O: 10 μM (maximum treatment concentration), 3 days
Protocol: (§1) G-401 cells and G-402 cells were cultured under the conditions of 5% CO2 at 37° C. in a 10% fetal bovine serum and 1% penicillin/streptomycin-containing McCoy's 5A medium. CHLA-06-ATRT cells were cultured under the conditions of 5% CO2 at 37° C. in a 10% B-27 supplement, 20 ng/mL EGF, 20 ng/mL FGF, and 1% penicillin/streptomycin-containing DMEM:F12 medium.

[2] = system: SMARCB1 deficient cells, i.e., G-401 cells, G-402 cells, and CHLA-06-ATRT cells; assay: Cell growth suppression experiment, SMARCB1 deficient cells (summary of Example 1); conditions: G-401, G-402 and CHLA-06-ATRT cells versus 786-O cells; result in words
Protocol: as §1

[3] = system: JMU-RTK-2+SMARCB1 cells (JMU-RTK-2 cells overexpressing SMARCB1); assay: Selectivity in cell growth suppression, JMU-RTK-2+SMARCB1 cells
Source text: (§2) The cytotoxic activity of a CBP/P300 inhibitor on JMU-RTK-2 cells and JMU-RTK-2+SMARCB1 cells was compared.

[4] = system: H460 cells (pulmonary adenocarcinoma derived, SMARCA2/A4 wild-type); assay: Cell growth suppression experiment (CellTiter-Glo), H460 cells; assay type: cell-based; conditions: for cell survival rate (%) at treatment with 10 μM, H460 / viability at 10 µM: 6 days; for IC50: cultured for 6 days, CellTiter-Glo; for viability at 10 µM: read-out: cell survival rate (%) at treatment with 10 μM, H460;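 for all read-outs here: luminescent viability read-out, compound added one day after seeding at 0.1% final DMSO, cells grown in DMEM-F12 with 10% fetal bovine serum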
[5] = system: G-401 cells (malignant rhabdoid tumor derived, SMARCB1 deficient); assay: Cell growth suppression experiment (CellTiter-Glo), G-401 cells; conditions: for cell survival rate (%) at treatment with 10 μM, G-401: 10 μM (maximum treatment concentration), 3 days
Protocol: as §1

[6] = system: SMARCA2/A4 deficient cells, i.e., H23 cells, DMS114 cells, and TOV112D cells; assay: Cell growth suppression experiment, SMARCA2/A4 deficient cells (summary of Example 8); assay type: cell-based; conditions: H23, DMS114 and TOV112D cells versus H460 cells; result in words
Protocol: Cytotoxic activity of a CBP/P300 on SMARCA2/A4 deficient cells, i.e., H23 cells (pulmonary adenocarcinoma derived), TOV112D cells (small cell ovarian cancer derived), and DMS114 cells (small cell lung cancer derived), and SMARCA2/A4 wild-type cells, i.e., H460 cells (pulmonary adenocarcinoma derived) was compared.
H23 cells, TOV112D cells, DMS114 cells, and H460 cells were cultured under 5% CO2 conditions at 37° C. in a 10% fetal bovine serum and 1% penicillin/streptomycin-containing DMEM-F12 medium.
Cells were seed on a 96-well plate at 250 to 500 cells per well. […] After completion of culture, the cell survival rate was measured using CellTiter-Glo Luminescent Cell Viability Assay (Promega, G770).

[7] = system: DMS114 cells (small cell lung cancer derived, SMARCA2/A4 deficient); assay: Cell growth suppression experiment (CellTiter-Glo), DMS114 cells; assay type: cell-based; conditions: for IC50 / cell survival rate (%) at treatment with 10 μM, DMS114: DMS114 cells; for IC50: cultured for 6 days, CellTiter-Glo; for cell survival rate (%) at treatment with 10 μM, DMS114: 6 days; for cell growth suppression effect on DMS114 cells: result in words
[8] = system: JMU-RTK-2 cells (malignant rhabdoid tumor derived, SMARCB1 deficient); assay: Selectivity in cell growth suppression, JMU-RTK-2 cells
Source text: as §2

[9] = system: H23 cells (pulmonary adenocarcinoma derived, SMARCA2/A4 deficient); assay: Cell growth suppression experiment (CellTiter-Glo), H23 cells; assay type: cell-based; conditions: for cell survival rate (%) at treatment with 10 μM, H23: 6 days; for IC50: cultured for 6 days, CellTiter-Glo;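 for all read-outs here: compounds tested as CBP/P300 agents, added one day after plating in 96-well plates with DMEM-F12 plus 10% fetal bovine serum, 0.1% DMSO final, luminescent viability read-out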
[10] = system: TOV112D cells (small cell ovarian cancer derived, SMARCA2/A4 deficient); assay: Cell growth suppression experiment (CellTiter-Glo), TOV112D cells; assay type: cell-based; conditions: for cell survival rate (%) at treatment with 10 μM, TOV112D: 6 days; for IC50: cultured for 6 days, CellTiter-Glo;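 for all read-outs here: luminescent viability read-out of TOV112D cells grown in DMEM-F12 with 10% fetal bovine serum, compound exposure starting one day after plating, DMSO at 0.1% final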
[11] = read-out: JMU-RTK-2 + SMARCB1 IC50, JMU-RTK-2+SMARCB1 cells, cultured for 6 days, CellTiter-Glo
[12] = read-out: IC50 G-401, G-401 cells, cultured for 3 days, CellTiter-Glo cell survival
[13] = read-out: JMU-RTK-2 IC50, JMU-RTK-2 cells, cultured for 6 days, CellTiter-Glo
[14] = 786-O cells, cultured for 3 days, CellTiter-Glo cell survival
[15] = Homo sapiens, 786-0, 72 h, read-out: cell survival rate (%) at treatment with 10 μM, 786-O
[16] = 144 h, read-out: JMU-RTK-2 + SMARCB1 IC50, JMU-RTK-2+SMARCB1 cells, cultured for 6 days, CellTiter-Glo
[17] = Homo sapiens, G-401, 72 h, read-out: IC50 G-401, G-401 cells, cultured for 3 days, CellTiter-Glo cell survival
[18] = 144 h, read-out: JMU-RTK-2 IC50, JMU-RTK-2 cells, cultured for 6 days, CellTiter-Glo

SMILES | IC50 ([1]; Homo sapiens, 786-0, 72 h) [µM] | cell growth suppression effect on SMARCB1 deficient cells [2] | IC50 [3, 11] [µM] | cell survival rate (%) at treatment with 10 μM, H460 [4] [%] | IC50 ([4]; Homo sapiens, NCI-H460, 144 h) [µM] | IC50 [5, 12] [µM] | cell growth suppression effect on SMARCA2/A4 deficient cells [6] | IC50 [7] [µM] | IC50 [8, 13] [µM] | cell survival rate (%) at treatment with 10 μM, H23 [9] [%] | IC50 [9] [µM] | cell survival rate (%) at treatment with 10 μM, TOV112D [10] [%] | viability at 10 µM [1, 15] [%] | IC50 [3, 16] [µM] | viability at 10 µM ([4]; Homo sapiens, NCI-H460, 144 h) [%] | IC50 [5, 17] [µM] | IC50 ([7]; Homo sapiens, DMS-114, 144 h) [µM] | IC50 [8, 18] [µM] | IC50 ([9]; Homo sapiens, NCI-H23, 144 h) [µM] | IC50 ([10]; Homo sapiens, TOV112D, 144 h) [µM] | further results
CNC(=O)Cn1cc(-c2ccc3c(c2)C(F)CC32NC(=O)N(CC(=O)N(Cc3ccc(F)cc3)[C@@H](C)C(F)(F)F)C2=O)cn1 (single isomer, unassigned) [Compound 1] | > 10 | selective and potent Cell growth suppression effect | 27.3 | 104 | > 10 | 2.7 | particularly selective and potent cell growth suppression effect | 4.83 | 2.5 | 52 | > 10 | 44 | – | – | – | – | – | – | – | – | viability at 10 µM ([1]; Homo sapiens, 786-0, 72 h, read-out: cell survival rate (%) at treatment with 10 μM, 786-O, 786-O cells, 10 μM (maximum treatment concentration), 3 days): 104%; IC50 [10]: > 10 µM
CNC(=O)Cn1cc(-c2ccc3c(c2)C(F)CC32NC(=O)N(CC(=O)N(Cc3ccc(F)cc3)[C@@H](C)C(F)(F)F)C2=O)cn1 (single isomer, unassigned) [Compound 2] | – | – | 20.1 | 100 | – | > 10 | particularly selective and potent cell growth suppression effect | > 10 | 4.8 | 99 | > 10 | 96 | – | – | – | – | – | – | – | – | cell survival rate (%) at treatment with 10 μM, 786-O ([1]; 786-O cells): 108%; IC50 [1, 14]: > 10 µM; IC50 [4]: > 10 µM; cell survival rate (%) at treatment with 10 μM, G-401 ([5]; G-401 cells): 62%; cell survival rate (%) at treatment with 10 μM, DMS114 [7]: 67%; cell growth suppression effect on DMS114 cells [7]: cell growth suppression effect; IC50 [10]: > 10 µM
CNC(=O)Cn1cc(-c2ccc3c(c2)C(F)CC32NC(=O)N(CC(=O)N(Cc3ccc(F)cc3)[C@@H](C)C(F)(F)F)C2=O)cn1 (single isomer, unassigned) [Compound 3] | – | selective and potent Cell growth suppression effect | 26.3 | 105 | – | 4.9 | particularly selective and potent cell growth suppression effect | 3.44 | 2.6 | 49 | > 10 | 43 | – | – | – | – | – | – | – | – | cell survival rate (%) at treatment with 10 μM, 786-O ([1]; 786-O cells): 107%; IC50 [1, 14]: > 10 µM; IC50 [4]: > 10 µM; IC50 [10]: > 10 µM
CO[C@H]1CC[C@H](n2c([C@@H]3CCCC(=O)N3c3ccc(F)c(F)c3)nc3cc(-c4c(C)noc4C)ccc32)CC1 [Compound 9] | > 10 | selective and potent Cell growth suppression effect | – | – | > 10 | – | particularly selective and potent cell growth suppression effect | – | – | – | – | 51 | 83 | 3.7 | 94 | 2.6 | 1.1 | 0.7 | 5.61 | > 10 | –
COC(=O)N1c2ccc3c(nc(Cc4ccccc4)n3[C@H]3CCC[C@H](C(=O)O)C3)c2CC[C@@H]1C [Compound 10] | > 10 | selective and potent Cell growth suppression effect | – | – | > 10 | – | particularly selective and potent cell growth suppression effect | – | – | 53 | – | 84 | 82 | 5.3 | 95 | 1.8 | 1.43 | 1.6 | > 10 | > 10 | –
COC(=O)N1c2ccc3c(nc(Cc4ccccc4)n3[C@@H]3CCC[C@@H](C(=O)O)C3)c2CC[C@@H]1C [Compound 11] | > 10 | – | – | – | > 10 | – | particularly selective and potent cell growth suppression effect | – | – | 75 | – | 93 | 93 | 5.8 | 99 | > 10 | 3.73 | 2 | > 10 | > 10 | cell survival rate (%) at treatment with 10 μM, G-401 ([5]; G-401 cells): 53%
CC(=O)N1CCc2c(c(Nc3ccc(-c4cnn(C)c4)cc3F)nn2[C@@H]2CCOC2)C1 [Compound 13] | > 10 | – | – | – | > 10 | – | – | – | – | 92 | – | 121 | 104 | 8.1 | 102 | > 10 | > 10 | 2.8 | > 10 | > 10 | cell survival rate (%) at treatment with 10 μM, G-401 ([5]; G-401 cells): 78%; cell survival rate (%) at treatment with 10 μM, DMS114 [7]: 64%; cell growth suppression effect on DMS114 cells [7]: cell growth suppression effect
